From patent US20090124607A1, “Novel Bicyclic Sulfonamides for Use as Glucocorticoid Receptor Modulators in the Treatment of Inflammatory Diseases” (priority 2005, published 2009)

The compounds below were run against T1, recombinant human GR (Homo sapiens, UniProt P04150) (assay: Human Glucocorticoid Receptor (GR) Assay, fluorescence polarization (GRhuFL_FP_v2, GR-binders)).
T1 construct: purchased Panvera/Invitrogen P2812 (kit P2893)
T1 sequence (P04150 1-777): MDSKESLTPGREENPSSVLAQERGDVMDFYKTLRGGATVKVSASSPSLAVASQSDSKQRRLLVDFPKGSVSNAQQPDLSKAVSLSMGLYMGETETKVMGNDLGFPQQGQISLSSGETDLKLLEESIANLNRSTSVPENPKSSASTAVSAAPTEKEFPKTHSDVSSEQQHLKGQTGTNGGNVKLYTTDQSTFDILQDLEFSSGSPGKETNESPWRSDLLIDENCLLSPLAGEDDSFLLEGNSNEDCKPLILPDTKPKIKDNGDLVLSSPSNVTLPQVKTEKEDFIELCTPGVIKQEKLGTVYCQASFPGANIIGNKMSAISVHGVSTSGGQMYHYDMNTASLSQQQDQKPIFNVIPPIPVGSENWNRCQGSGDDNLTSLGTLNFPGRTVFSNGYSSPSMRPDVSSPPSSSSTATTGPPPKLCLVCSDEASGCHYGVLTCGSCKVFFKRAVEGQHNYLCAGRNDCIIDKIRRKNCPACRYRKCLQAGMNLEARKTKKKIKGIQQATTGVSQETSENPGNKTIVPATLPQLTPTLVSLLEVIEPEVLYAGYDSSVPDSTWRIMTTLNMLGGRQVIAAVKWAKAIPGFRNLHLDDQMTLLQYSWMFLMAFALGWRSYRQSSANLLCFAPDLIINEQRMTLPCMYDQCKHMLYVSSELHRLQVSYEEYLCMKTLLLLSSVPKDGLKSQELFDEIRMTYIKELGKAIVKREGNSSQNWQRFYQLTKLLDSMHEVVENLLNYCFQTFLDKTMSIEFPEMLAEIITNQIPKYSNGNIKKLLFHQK
Type: binding
Experimental: Human Glucocorticoid Receptor (GR) Assay
The assay is based on a commercial kit from Panvera/Invitrogen (Part number P2893). The assay technology is fluorescence polarization. […] The GR and Stabilizing Peptide reagents are stored at −70° C. while the GS Red is stored at −20° C. Also included in the kit are 1M DTT (Panvera, Part number P2325, stored at −20° C.) and GR Screening buffer 10× (Panvera, Part number P2814, stored at −70° C. initially but once thawed stored at room temperature). Avoid repeated freeze/thaws for all reagents. The GR Screening buffer 10× comprises 100 mM potassium phosphate, 200 mM sodium molybdate, 1 mM EDTA and 20% DMSO.
0% control was 100% DMSO and 100% control was 10 μM Dexamethasone. Background solution (8 μL; assay buffer 10×, Stabilizing Peptide, DTT and ice cold MQ water) was added to the background wells. GS Red solution (7 μL; assay buffer 10×, Stabilizing Peptide, DTT, GS Red and ice cold water) was added to all wells except background wells. GR solution (7 μL; assay buffer 10×, Stabilizing Peptide, DTT, GR and ice cold water) was added to all wells. The plate was sealed and incubated in a dark at room temperature for 2 hours.

In order of rising IC50:
1. COc1ccc(-n2ncc3c(NC[C@H](C)NS(=O)(=O)c4c(C)cc(C)cc4C)cccc32)cc1F [Example 21, N-((1S)-2-{[1-(3-Fluoro-4-methoxy-phenyl)-1H-indazol-4-yl]amino}-1-methylethyl)-2,4,6-trimethylbenzenesulfonamide]  2.7 nM
2. Cc1nn(C2CCCC2)c(C)c1S(=O)(=O)N[C@@H](C)CNc1cccc2c1cnn2-c1ccc(F)nc1 [Example 26, 1-Cyclopentyl-N-((1S)-2-{[1-(6-fluoropyridin-3-yl)-1H-indazol-4-yl]amino}-1-methylethyl)-3,5-dimethyl-1H-pyrazole-4-sulfonamide]  3 nM
3. Cc1cc(C)c(S(=O)(=O)N[C@@H](C)CNc2cccc3c2cnn3-c2ccc(Cl)cc2)c(C)c1 [Example 22, N-((1S)-2-{[1-(4-Chlorophenyl)-1H-indazol-4-yl]amino}-1-methylethyl)-2,4,6-trimethylbenzenesulfonamide]  3.5 nM
4. Cc1cccc(-n2ncc3c(NC[C@H](C)NS(=O)(=O)c4c(C)cc(C)cc4C)cccc32)c1 [Example 9, 2,4,6-Trimethyl-N-((1S)-1-methyl-2-{[1-(3-methylphenyl)-1H-indazol-4-yl]amino}ethyl)benzenesulfonamide]  3.8 nM
5. Cc1ccc(-n2ncc3c(NC[C@H](C)NS(=O)(=O)c4c(C)cc(C)cc4C)cccc32)cc1 [Example 12, 2,4,6-Trimethyl-N-((1S)-1-methyl-2-{[1-(4-methylphenyl)-1H-indazol-4-yl]amino}ethyl)benzenesulfonamide]  3.9 nM
6. Cc1cc(C)c(S(=O)(=O)N[C@@H](C)CNc2cccc3c2cnn3-c2cccc(F)c2)c(C)c1 [Example 13, N-((1S)-2-{[1-(3-Fluorophenyl)-1H-indazol-4-yl]amino}-1-methylethyl)-2,4,6-trimethylbenzenesulfonamide]  4 nM
7. Cc1cc(C)c(S(=O)(=O)N[C@@H](C)CNc2cccc3c2cnn3-c2ccc(F)c(C)c2)c(C)c1 [Example 17, N-((1S)-2-{[1-(4-Fluoro-3-methylphenyl)-1H-indazol-4-yl]amino}-1-methylethyl)-2,4,6-trimethylbenzenesulfonamide]  4 nM
8. COCc1cccc(-n2ncc3c(NC[C@H](C)NS(=O)(=O)c4c(C)cc(C)cc4C)cccc32)c1 [Example 20, N-[(1S)-2-({1-[3-(Methoxymethyl)phenyl]-1H-indazol-4-yl}amino)-1-methylethyl]-2,4,6-trimethylbenzenesulfonamide]  4.4 nM
9. Cc1cc(C)c(S(=O)(=O)N[C@@H](C)CCc2cccc3c2cnn3-c2ccc(F)cc2)c(C)c1 [Example 39, N-{(1S)-3-[1-(4-Fluorophenyl)-1H-indazol-4-yl]-1-methylpropyl}-2,4,6-trimethylbenzenesulfonamide]  4.6 nM
10. Cc1nn(C2CCCC2)c(C)c1S(=O)(=O)N[C@@H](C)CNc1cccc2c1cnn2-c1cncnc1 [Example 29, 1-Cyclopentyl-3,5-dimethyl-N-{(1S)-1-methyl-2-[(1-pyrimidin-5-yl-1H-indazol-4-yl)amino]ethyl}-1H-pyrazole-4-sulfonamide]  5.7 nM
11. Cc1cc(C)c(S(=O)(=O)NC[C@H](C)Nc2cccc3c2cnn3-c2ccc(F)cc2)c(C)c1 [Example 40, N-((2S)-2-{[1-(4-Fluorophenol)-1H-indazol-4-yl]amino}propyl)-2,4,6-trimethylbenzenesulfonamide]  6.4 nM
12. COc1ccc(-n2ncc3c(NC[C@H](C)NS(=O)(=O)c4c(C)cc(C)cc4C)cccc32)cn1 [Example 11, N-((1S)-2-{[1-(6-Methoxypyridin-3-yl)-1H-indazol-4-yl]amino}-1-methylethyl)-2,4,6-trimethylbenzenesulfonamide]  6.6 nM
13. Cc1cc(C)c(S(=O)(=O)N[C@@H](C)CNc2cccc3c2cnn3-c2ccnc(F)c2)c(C)c1 [Example 10, N-((1S)-2-{[1-(2-Fluoropyridin-4-yl)-1H-indazol-4-yl]amino}-1-methylethyl)-2,4,6-trimethylbenzenesulfonamide]  7.1 nM
14. Cc1cc(C)c(S(=O)(=O)N[C@@H](C)CNc2cccc3c2cnn3-c2cccc(OC(F)(F)F)c2)c(C)c1 [Example 6, 2,4,6-Trimethyl-N-[(1S)-1-methyl-2-({1-[3-(trifluoromethoxy)phenyl]-1H-indazol-4-yl}amino)ethyl]benzenesulfonamide]  15 nM
15. Cc1cc(C)c(S(=O)(=O)N[C@@H](C)CCc2cccc3c2cnn3-c2cncnc2)c(C)c1 [Example 54, 2,4,6-Trimethyl-N-[(1S)-1-methyl-3-(1-pyrimidin-5-yl-1H-indazol-4-yl)propyl]benzenesulfonamide]  17 nM
16. Cc1nn([C@@H]2CCOC2)c(C)c1S(=O)(=O)N[C@@H](C)COc1cccc2c1cnn2-c1ccc(F)cc1 [Example 45, N-((1S)-2-{[1-(4-Fluorophenyl)-1H-indazol-4-yl]oxy}-1-methylethyl)-3,5-dimethyl-1-[(3R)-tetrahydrofuran-3-yl]-1H-pyrazole-4-sulfonamide]  18 nM
17. Cc1cc(C)c(S(=O)(=O)NCC(C)(C)Nc2cccc3c2cnn3-c2ccc(F)cc2)c(C)c1 [Example 55, N-[2-[[1-(4-Fluorophenyl)indazol-4-yl]amino]-2-methylpropyl]-2,4,6-trimethyl-benzenesulfonamide]  24 nM
18. COc1cncc(-n2ncc3c(NC[C@H](C)NS(=O)(=O)c4c(C)nn(C5CCCC5)c4C)cccc32)c1 [Example 31, 1-Cyclopentyl-N-((1S)-2-{[1-(5-methoxypyridin-3-yl)-1H-indazol-4-yl]amino}-1-methylethyl)-3,5-dimethyl-1H-pyrazole-4-sulfonamide]  44 nM
19. Cc1cc(C)c(S(=O)(=O)NC(C)CCc2cccc3c2cnn3-c2ccc(F)cc2)c(C)c1 (centres unmarked) [Example 38, N-{3-[1-(4-Fluorophenyl)-1H-indazol-4-yl]-1-methylpropyl}-2,4,6-trimethylbenzenesulfonamide]  45 nM
20. Cc1nn(C2CCCC2)c(C)c1S(=O)(=O)N[C@@H](C)COc1cccc2c1cnn2-c1ccc(F)cc1 [Example 48, 1-Cyclopentyl-N-((1S)-2-{[1-(4-fluorophenyl)-1H-indazol-4-yl]oxy}-1-methylethyl)-3,5-dimethyl-1H-pyrazole-4-sulfonamide]  51 nM
21. Cc1nn(C2CCCC2)c(C)c1S(=O)(=O)N[C@@H](C)COc1cccc2c1cnn2-c1cccnc1 [Example 49, 1-Cyclopentyl-3,5-dimethyl-N-{(1S)-1-methyl-2-[(1-pyridin-3-yl-1H-indazol-4-yl)oxy]ethyl}-1H-pyrazole-4-sulfonamide]  54 nM
22. Cc1nn(C(C)(C)C)c(C)c1S(=O)(=O)N[C@@H](C)COc1cccc2c1cnn2-c1cccnc1 [Example 44, 1-tert-Butyl-3,5-dimethyl-N-{(1S)-1-methyl-2-[(1-pyridin-3-yl-1H-indazol-4-yl)oxy]ethyl}-1H-pyrazole-4-sulfonamide]  80 nM
23. Cc1cc(C)c(S(=O)(=O)N[C@@H](C)CNc2cccc3c2cnn3-c2cccc(C(F)(F)F)c2)c(C)c1 [Example 19, 2,4,6-Trimethyl-N-[(1S)-1-methyl-2-({1-[3-(trifluoromethyl)phenyl]-1H-indazol-4-yl}amino)ethyl]benzene sulfonamide]  260 nM
24. Cc1cc(C)c(S(=O)(=O)N[C@@H](C)CNc2cccc3c2c(C)nn3-c2ccc(F)cc2)c(C)c1 [Example 52, N-((1S)-2-{[1-(4-Fluoro-phenyl)-3-methyl-1H-indazol-4-yl]amino}-1-methylethyl)-2,4,6-trimethylbenzenesulfonamide]  272 nM
25. Cc1cc(C)c(S(=O)(=O)NC(C)CS(=O)(=O)c2cccc3c2cnn3-c2ccc(F)cc2)c(C)c1 (centres unmarked) [Example 37, N-[2-[1-(4-Fluorophenyl)indazol-4-yl]sulfonyl-1-methyl-ethyl]-2,4,6-trimethyl-benzenesulfonamide]  790 nM
26. Cc1cc(C)c(S(=O)(=O)N[C@@H](C)CNc2ncnc3c2cnn3-c2ccccc2)c(C)c1 [Example 34, 2,4,6-Trimethyl-N-{(1S)-1-methyl-2-[(1-phenyl-1H-pyrazolo[3,4-d]pyrimidin-4-yl)amino]ethyl}benzenesulfonamide]  5300 nM
